From ChEMBL document CHEMBL1201862, “PubChem BioAssay data set” (2004)
The source made the active and inactive calls.

Experiments:
[1] = molecular target: ADP-ribosylation factor GTPase-activating protein 1 (Rattus norvegicus, UniProt Q62848); test: Fluorescence polarization-based biochemical high throughput dose response screening assay to identify inhibitors of ADP-ribosylation factor GTPase activating protein 1 (ARFGAP1).; type: functional
[2] = molecular target: Mu-type opioid receptor (Homo sapiens, UniProt P35372); type: functional, cell-based;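 note: U2OS cells with beta-arrestin recruitment to OPRM1 by beta-gal complementation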
[3] = molecular target: 5-hydroxytryptamine receptor 2A (Mus musculus, UniProt P35363); type: functional, cell-based;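 note: CHO-K1 cells with tagged receptor and beta-arrestin; agonist potency measured as compound-induced activation of the receptor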
[4] = molecular target: Neurotensin receptor type 1 (Homo sapiens, UniProt P30989); type: functional;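 note: Image-based confirmatory dose-response assay measuring agonist activity at NTR1; NTR1-expressing U2OS osteosarcoma cells imaged for beta-arrestin GFP spot formation; agonist potency where compounds increase beta-arrestin recruitment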
[5] = MDA-MB-231 cell growth inhibition, dose response, cytotoxicity control for RAD54 inhibitor project, CellTiter-Glo luminescence, cherry-pick (AID 651692); type: functional, cell-based
[6] = molecular target: DNA repair and recombination protein RAD54-like (Homo sapiens, UniProt Q92698); test: inhibitors of human RAD54 branch migration, confirmation, biochemical, fluorescence, cherry-picked samples, dose series (AID 651657); type: functional
[7] = molecular target: T1, Hexokinase HKDC1 (Homo sapiens, UniProt Q2TB90); test: HKDC1 hexokinase inhibitors, dose response, biochemical, W721R variant (AID 504729); type: functional
T1 sequence (Q2TB90 whole entry): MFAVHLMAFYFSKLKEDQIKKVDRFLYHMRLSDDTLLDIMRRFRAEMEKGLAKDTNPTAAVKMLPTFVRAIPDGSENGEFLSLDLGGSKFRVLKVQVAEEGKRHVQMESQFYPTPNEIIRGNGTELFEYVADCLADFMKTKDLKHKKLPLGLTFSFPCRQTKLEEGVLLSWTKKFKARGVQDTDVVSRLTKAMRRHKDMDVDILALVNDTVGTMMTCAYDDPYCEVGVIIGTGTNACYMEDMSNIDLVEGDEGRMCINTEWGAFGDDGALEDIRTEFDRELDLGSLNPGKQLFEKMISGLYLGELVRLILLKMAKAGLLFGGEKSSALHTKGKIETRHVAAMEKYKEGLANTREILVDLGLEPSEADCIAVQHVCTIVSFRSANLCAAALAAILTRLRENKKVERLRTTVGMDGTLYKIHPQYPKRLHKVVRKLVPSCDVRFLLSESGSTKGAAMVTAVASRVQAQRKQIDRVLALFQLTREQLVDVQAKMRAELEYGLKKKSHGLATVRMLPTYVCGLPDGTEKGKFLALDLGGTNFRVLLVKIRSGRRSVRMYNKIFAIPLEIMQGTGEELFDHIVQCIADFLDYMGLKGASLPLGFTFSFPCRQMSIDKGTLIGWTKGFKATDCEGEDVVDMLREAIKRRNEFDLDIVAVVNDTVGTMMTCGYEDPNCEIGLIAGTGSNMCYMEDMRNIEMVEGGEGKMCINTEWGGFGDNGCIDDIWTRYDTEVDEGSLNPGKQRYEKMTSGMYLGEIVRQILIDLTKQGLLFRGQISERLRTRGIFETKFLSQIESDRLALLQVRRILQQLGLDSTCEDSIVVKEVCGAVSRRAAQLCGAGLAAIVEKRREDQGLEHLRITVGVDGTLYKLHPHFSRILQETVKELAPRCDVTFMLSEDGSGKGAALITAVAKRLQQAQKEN

[8] = molecular target: DNA (cytosine-5)-methyltransferase 1 (Homo sapiens, UniProt P26358); test: DNMT1 methyltransferase inhibitors, confirmation, biochemical, fluorescent molecular beacon (AID 602386); type: functional
[9] = molecular target: T2, Small ubiquitin-related modifier 1 (Homo sapiens, UniProt P63165); test: inhibitors of SUMO1 peptide binding, dose response, biochemical, fluorescence polarization, uHTS hits (AID 624382); type: functional; details: read-out: IC50_Mean
[10] = molecular target: T2, Small ubiquitin-related modifier 1; test: inhibitors of SUMO1 partner interactions, dose response, biochemical, FRET (AID 624383); type: functional; details: read-out: IC50_Mean
[11] = molecular target: Nuclear receptor subfamily 5 group A member 2 (Homo sapiens, UniProt O00482); type: functional, cell-based;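 note: HEK293T cells transfected with LRH-1 and a StAR promoter luciferase reporter; potency for inhibitors that lower LRH-1 driven reporter light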
[12] = molecular target: Steroidogenic factor 1 (Homo sapiens, UniProt Q13285); test: Counterscreen for inverse agonists of the liver receptor homolog-1 (LRH-1; NR5A2): Luminescence-based cell-based high throughput dose response assay to identify inverse agonists of the Steroidogenic Factor 1 Nuclear Receptor (SF1; NR5A1).; type: functional
[13] = StAR promoter reporter inhibition counter-screen, dose response, counter-screen for LRH-1 inverse agonist project, cell-based, luminescence, luciferase reporter (AID 651969); type: functional
[14] = molecular target: Nonstructural protein 1 (Influenza A virus, UniProt Q194T2); type: functional, Influenza A virus (A/California/07/2009(H1N1))
[15] = cytotoxicity in NIH3T3 fibroblasts, dose response, cytotoxicity control for HSP40 inhibitor project, cell-based, CellTiter-Glo luminescence, cherry-pick, set 2 (AID 624265); type: functional
[16] = molecular target: T3, Histone-lysine N-methyltransferase NSD2 (Homo sapiens, UniProt O96028); type: biochemical
T3 sequence (O96028 whole entry): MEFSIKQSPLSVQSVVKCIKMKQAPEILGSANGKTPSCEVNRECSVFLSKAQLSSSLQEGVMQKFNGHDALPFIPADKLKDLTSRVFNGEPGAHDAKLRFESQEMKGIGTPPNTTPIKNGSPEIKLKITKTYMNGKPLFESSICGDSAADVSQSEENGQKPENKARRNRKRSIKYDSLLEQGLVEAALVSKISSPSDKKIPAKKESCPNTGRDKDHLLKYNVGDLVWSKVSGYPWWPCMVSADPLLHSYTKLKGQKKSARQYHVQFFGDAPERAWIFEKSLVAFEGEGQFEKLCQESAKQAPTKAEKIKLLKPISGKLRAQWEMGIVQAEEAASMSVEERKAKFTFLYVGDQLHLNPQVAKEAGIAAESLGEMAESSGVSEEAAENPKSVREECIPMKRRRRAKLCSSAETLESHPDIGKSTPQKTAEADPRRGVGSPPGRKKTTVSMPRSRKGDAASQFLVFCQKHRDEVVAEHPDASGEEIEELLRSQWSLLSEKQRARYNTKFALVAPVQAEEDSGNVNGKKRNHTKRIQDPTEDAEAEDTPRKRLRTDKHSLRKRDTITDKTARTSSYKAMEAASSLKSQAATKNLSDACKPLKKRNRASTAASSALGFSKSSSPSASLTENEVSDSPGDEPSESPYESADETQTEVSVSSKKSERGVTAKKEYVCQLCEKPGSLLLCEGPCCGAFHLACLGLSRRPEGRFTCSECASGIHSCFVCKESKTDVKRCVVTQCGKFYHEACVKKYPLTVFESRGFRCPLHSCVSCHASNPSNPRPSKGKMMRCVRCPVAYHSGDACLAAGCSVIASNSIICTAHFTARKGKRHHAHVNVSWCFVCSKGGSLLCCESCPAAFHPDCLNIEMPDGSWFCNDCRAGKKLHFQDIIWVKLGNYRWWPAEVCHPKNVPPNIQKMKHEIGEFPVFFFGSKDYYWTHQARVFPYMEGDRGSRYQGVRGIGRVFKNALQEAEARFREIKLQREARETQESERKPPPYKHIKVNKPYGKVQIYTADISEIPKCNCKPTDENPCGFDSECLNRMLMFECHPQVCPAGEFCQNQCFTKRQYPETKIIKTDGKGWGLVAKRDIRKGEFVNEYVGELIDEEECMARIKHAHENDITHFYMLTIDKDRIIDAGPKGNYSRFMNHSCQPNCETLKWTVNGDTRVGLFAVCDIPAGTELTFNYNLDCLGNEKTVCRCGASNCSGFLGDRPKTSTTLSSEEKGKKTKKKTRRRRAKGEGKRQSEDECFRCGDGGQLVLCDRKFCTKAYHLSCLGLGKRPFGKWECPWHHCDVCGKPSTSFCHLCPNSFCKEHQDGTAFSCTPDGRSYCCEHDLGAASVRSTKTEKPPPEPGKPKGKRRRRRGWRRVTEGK

[17] = molecular target: T4, Carboxy-terminal domain RNA polymerase II polypeptide A small phosphatase 1 (Homo sapiens, UniProt Q9GZU7); test: inhibitors of CTDSP1, concentration-response testing, biochemical assay, absorbance-based, actives from ultra-high-throughput screening (AID 540297); type: functional
T4 sequence (Q9GZU7 whole entry): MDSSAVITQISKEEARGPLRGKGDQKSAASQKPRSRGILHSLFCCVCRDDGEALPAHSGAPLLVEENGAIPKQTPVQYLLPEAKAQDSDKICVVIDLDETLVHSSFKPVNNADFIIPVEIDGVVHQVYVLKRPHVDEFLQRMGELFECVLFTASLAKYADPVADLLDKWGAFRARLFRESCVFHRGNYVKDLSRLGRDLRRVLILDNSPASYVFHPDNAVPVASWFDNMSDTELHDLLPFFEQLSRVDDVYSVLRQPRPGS

[18] = molecular target: Tyrosine-protein phosphatase non-receptor type 11 (Homo sapiens, UniProt Q06124); test: SHP2 phosphatase inhibition, dose response, selectivity assay for STEP inhibitor project, biochemical (AID 602367); type: functional; details: read-out: IC50_Mean
[19] = molecular target: Tyrosine-protein phosphatase non-receptor type 5 (Homo sapiens, UniProt P54829); test: STEP phosphatase inhibitors, confirmation, biochemical, fluorescence intensity, uHTS hits (AID 602372); type: functional; details: read-out: IC50_Mean
[20] = molecular target: Dual specificity protein phosphatase 3 (Homo sapiens, UniProt P51452); test: VHR phosphatase inhibition, dose response, selectivity assay for STEP inhibitor project, biochemical (AID 602374); type: functional; details: read-out: IC50_Mean
[21] = molecular target: T5, Tyrosine-protein phosphatase non-receptor type 22 (Homo sapiens, UniProt Q9Y2R2); test: PTPN22 phosphatase inhibition, dose response, selectivity assay for STEP inhibitor project, biochemical (AID 624241); type: functional
T5 sequence (Q9Y2R2 whole entry): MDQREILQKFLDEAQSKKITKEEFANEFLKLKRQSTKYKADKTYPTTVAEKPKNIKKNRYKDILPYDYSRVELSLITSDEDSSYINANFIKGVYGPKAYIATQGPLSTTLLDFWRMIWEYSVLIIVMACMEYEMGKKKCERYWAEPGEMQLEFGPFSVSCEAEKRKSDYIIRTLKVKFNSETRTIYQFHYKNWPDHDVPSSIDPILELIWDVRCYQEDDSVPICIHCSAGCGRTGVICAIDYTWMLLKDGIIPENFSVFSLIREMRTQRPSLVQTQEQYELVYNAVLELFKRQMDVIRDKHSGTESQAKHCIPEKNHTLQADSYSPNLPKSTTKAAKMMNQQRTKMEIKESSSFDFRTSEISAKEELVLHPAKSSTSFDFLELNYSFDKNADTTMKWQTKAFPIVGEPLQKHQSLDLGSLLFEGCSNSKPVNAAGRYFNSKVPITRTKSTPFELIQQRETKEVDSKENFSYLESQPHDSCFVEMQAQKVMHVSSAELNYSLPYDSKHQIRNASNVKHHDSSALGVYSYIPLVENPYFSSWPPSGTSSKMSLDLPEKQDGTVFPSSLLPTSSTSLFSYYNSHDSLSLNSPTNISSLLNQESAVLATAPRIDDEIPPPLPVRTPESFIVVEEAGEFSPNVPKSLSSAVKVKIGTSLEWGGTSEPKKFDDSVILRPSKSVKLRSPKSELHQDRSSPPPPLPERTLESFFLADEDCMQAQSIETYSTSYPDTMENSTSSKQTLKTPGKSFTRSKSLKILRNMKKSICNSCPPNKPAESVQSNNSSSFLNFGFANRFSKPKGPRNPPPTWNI

[22] = molecular target: T6, Low molecular weight phosphotyrosine protein phosphatase (Homo sapiens, UniProt P24666); type: functional; details: read-out: IC50_Mean;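 note: Dose-response confirmation assay measuring inhibition of LMPTP enzyme activity by fluorescence intensity read-out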
T6 sequence (P24666 whole entry): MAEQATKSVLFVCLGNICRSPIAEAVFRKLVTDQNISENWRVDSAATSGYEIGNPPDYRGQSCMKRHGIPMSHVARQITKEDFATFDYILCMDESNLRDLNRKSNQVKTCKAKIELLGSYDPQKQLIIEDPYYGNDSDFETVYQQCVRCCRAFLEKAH

[23] = molecular target: T7, Protein disulfide-isomerase (Homo sapiens, UniProt P07237); test: PDI inhibitors, insulin aggregation turbidity, dose response, biochemical, absorbance, cherry-picked samples (AID 602350); type: functional
[24] = molecular target: T7, Protein disulfide-isomerase; test: PDI inhibitors, insulin turbidity readout, dose response, biochemical, absorbance, cherry-picked samples, set 2 (AID 624274); type: functional

T7 sequence (P07237 whole entry): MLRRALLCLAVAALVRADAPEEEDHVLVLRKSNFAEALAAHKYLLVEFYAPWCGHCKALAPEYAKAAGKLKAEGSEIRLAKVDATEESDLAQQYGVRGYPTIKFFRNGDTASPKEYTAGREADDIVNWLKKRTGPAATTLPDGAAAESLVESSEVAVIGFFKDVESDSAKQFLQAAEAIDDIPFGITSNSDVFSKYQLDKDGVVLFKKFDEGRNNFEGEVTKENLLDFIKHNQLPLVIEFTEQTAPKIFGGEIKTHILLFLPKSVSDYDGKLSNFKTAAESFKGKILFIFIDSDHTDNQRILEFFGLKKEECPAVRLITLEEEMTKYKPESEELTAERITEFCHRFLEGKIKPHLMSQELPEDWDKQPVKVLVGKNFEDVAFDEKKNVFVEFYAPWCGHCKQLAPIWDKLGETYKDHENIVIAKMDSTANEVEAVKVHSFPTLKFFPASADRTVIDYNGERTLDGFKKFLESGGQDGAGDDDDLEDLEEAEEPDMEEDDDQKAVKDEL
T2 sequence (P63165 whole entry): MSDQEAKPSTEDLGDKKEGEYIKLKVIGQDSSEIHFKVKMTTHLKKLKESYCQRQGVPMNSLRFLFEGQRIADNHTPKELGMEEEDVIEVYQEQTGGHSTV
Chain of DNA repair and recombination protein RAD54-like (Q92698 whole entry): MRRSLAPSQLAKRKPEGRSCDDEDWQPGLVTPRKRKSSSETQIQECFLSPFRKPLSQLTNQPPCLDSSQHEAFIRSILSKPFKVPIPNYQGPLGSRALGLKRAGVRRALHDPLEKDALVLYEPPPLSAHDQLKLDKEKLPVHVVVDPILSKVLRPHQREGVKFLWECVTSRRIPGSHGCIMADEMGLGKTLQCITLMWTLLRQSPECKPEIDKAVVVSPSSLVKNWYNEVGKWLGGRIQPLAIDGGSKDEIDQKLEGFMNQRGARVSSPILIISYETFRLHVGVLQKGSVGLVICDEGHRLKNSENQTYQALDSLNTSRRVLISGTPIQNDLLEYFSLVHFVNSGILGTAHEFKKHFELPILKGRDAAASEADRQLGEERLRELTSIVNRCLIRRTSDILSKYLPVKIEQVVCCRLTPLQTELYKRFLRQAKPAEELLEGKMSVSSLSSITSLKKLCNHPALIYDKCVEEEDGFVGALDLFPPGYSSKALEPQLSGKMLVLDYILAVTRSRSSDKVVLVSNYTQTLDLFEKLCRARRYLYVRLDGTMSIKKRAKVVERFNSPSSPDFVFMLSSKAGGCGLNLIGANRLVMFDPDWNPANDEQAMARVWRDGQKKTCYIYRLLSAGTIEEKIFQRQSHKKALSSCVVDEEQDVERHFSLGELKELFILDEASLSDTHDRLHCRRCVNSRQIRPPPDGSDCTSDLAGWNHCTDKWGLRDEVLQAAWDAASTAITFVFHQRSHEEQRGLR
Chain of Dual specificity protein phosphatase 3 (P51452 whole entry): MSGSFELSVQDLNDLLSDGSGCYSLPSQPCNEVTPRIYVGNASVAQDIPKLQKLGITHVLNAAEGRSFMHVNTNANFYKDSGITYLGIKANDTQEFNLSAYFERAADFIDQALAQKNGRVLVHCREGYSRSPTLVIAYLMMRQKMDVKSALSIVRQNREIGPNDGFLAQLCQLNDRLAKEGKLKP
Chain of 5-hydroxytryptamine receptor 2A (P35363 whole entry): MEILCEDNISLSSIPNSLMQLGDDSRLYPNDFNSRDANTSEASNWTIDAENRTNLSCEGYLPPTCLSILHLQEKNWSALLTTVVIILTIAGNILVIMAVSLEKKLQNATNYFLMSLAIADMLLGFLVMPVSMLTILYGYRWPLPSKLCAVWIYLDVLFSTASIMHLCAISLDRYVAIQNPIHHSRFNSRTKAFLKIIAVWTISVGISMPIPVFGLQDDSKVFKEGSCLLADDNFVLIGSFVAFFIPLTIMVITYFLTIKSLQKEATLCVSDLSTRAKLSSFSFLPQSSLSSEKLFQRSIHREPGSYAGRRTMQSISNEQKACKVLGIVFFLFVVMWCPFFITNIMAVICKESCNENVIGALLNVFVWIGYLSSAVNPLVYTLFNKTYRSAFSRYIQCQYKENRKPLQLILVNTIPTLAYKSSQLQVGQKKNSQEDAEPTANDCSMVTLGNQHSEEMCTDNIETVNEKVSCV
Chain of Tyrosine-protein phosphatase non-receptor type 11 (Q06124 whole entry): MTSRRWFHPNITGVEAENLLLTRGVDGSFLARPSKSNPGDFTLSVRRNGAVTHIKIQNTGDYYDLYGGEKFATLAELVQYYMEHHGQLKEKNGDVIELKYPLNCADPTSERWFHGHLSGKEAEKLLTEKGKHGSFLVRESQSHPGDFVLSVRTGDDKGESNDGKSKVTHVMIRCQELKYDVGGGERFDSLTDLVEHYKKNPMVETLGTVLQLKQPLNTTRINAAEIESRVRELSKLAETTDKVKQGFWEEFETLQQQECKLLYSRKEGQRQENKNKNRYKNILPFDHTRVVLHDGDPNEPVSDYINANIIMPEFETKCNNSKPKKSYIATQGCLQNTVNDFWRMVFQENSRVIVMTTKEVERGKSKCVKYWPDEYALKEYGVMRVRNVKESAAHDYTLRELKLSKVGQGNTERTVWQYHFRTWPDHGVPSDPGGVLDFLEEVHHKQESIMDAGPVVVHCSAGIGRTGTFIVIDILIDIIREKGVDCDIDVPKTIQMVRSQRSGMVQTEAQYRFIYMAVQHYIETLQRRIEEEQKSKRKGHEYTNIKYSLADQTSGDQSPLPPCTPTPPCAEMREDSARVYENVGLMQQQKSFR
Chain of Nonstructural protein 1 (Q194T2 whole entry): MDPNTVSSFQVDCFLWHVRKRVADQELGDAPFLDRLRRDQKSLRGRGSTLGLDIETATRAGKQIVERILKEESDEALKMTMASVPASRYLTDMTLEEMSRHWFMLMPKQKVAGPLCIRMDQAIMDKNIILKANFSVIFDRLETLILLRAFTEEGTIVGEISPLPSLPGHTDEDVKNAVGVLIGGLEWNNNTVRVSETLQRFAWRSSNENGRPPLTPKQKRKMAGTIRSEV
Chain of Steroidogenic factor 1 (Q13285 whole entry): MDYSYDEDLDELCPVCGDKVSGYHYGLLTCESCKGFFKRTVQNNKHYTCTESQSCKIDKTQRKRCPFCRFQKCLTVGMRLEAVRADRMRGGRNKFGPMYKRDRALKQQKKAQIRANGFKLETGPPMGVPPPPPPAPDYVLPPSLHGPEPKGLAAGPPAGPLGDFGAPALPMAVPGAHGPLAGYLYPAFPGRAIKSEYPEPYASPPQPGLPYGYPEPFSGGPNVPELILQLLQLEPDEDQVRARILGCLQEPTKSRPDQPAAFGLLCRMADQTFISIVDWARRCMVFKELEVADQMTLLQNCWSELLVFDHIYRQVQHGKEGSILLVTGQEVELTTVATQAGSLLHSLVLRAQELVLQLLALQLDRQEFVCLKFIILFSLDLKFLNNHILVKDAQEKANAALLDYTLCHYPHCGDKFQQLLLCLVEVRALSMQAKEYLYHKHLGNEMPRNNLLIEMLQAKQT
Chain of ADP-ribosylation factor GTPase-activating protein 1 (Q62848 whole entry): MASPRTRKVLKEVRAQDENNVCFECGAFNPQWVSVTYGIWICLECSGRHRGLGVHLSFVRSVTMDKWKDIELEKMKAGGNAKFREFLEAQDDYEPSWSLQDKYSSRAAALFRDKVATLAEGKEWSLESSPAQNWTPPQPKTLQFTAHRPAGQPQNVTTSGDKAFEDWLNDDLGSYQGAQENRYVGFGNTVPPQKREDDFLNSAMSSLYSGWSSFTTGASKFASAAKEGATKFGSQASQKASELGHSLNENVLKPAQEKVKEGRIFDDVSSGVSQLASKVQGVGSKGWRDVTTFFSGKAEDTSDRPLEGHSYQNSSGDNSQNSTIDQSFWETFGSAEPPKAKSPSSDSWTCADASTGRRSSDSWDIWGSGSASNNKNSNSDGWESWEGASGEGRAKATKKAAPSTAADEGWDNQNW
Chain of Neurotensin receptor type 1 (P30989 whole entry): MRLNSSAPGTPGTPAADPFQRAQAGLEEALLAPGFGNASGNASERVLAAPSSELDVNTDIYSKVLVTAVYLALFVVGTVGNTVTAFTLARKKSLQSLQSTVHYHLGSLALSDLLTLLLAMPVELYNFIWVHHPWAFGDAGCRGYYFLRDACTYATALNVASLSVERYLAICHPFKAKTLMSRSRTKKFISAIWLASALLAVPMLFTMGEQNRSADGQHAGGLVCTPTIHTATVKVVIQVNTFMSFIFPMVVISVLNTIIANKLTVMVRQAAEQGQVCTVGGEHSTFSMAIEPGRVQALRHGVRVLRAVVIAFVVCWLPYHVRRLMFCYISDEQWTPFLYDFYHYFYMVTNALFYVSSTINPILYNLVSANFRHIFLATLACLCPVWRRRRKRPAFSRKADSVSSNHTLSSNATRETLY
Chain of Nuclear receptor subfamily 5 group A member 2 (O00482 whole entry): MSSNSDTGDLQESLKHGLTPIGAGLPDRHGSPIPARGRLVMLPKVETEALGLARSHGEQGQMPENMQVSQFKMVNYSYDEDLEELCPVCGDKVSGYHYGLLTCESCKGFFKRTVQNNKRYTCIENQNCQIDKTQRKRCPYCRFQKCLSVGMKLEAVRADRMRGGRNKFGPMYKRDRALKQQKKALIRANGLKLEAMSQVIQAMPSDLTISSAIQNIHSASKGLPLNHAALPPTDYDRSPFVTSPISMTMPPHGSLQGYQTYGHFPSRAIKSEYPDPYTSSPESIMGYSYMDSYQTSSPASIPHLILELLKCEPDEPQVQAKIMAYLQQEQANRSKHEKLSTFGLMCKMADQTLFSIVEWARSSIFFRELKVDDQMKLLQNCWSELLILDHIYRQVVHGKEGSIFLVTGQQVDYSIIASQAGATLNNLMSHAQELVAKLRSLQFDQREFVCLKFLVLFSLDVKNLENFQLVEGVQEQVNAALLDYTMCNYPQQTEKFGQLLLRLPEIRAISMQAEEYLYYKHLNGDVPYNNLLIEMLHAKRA

COc1ccc(-n2c(SCC(N)=O)nc3sc4c(c3c2=O)CCN(C)C4)cc1
IC50 [1]: 111 µM (inactive)

COc1ccc(CN2CCN(c3ncccn3)CC2)c(OC)c1
EC50 [2]: 92.5 µM (inactive) | EC50 [3]: 0.322 µM (active)

CCOC(=O)c1c(NC(C)=O)sc2c(OCC(O)CN(CC)CC)c(Br)ccc12 (centres undefined)
EC50 [4]: 22.6 µM (inactive) | AC50 [5]: 24.6 µM (active) | AC50 [6]: 8.3 µM (active)

O=C(/C=C/c1ccc(Br)cc1)NC(=S)Nc1ccc(S(=O)(=O)Nc2nccs2)cc1
IC50 [7]: 17.3 µM (active) | IC50 [8]: 5.22 µM (active) | IC50 [9]: > 66.6 µM (inactive) | IC50 [10]: 3.39 µM (active)

CCOc1ccc(NC(=O)CN2CCN(CC(=O)Nc3ccc(OC)cc3)CC2)cc1
IC50 [11]: 18.1 µM (inactive) | IC50 [12]: 3.07 µM (active) | IC50 [13]: 35.9 µM (inactive)

O=C1c2cccc(Cl)c2C(=O)c2c1cccc2N1CCCC1
IC50 [14]: 8.7 µM (active) | AbsAC35_uM [15]: 61.52 µM | AC50 [16]: 2.51 µM (active)

NC(=O)c1cc2ccccc2o/c1=N\NC(=O)c1ccccc1O
IC50 [17]: 7.89 µM (active) | IC50 [18]: 5.39 µM (active) | IC50 [19]: 6.57 µM (active) | IC50 [20]: 1.93 µM (active) | IC50 [21]: 90.7 µM (inactive) | IC50 [22]: 24.2 µM (inactive)

COc1cccc(/C=N/NC(=O)CNC(=O)c2ccc3c(c2)OCCO3)c1O
AC50 [23]: < 0.009 µM (active) | AC50 [24]: 0.009 µM (active)
